Molecules are shown by their SMILES.

In the assay the target is T1, crosslinked smooth muscle actomyosin (chicken gizzard smooth muscle myosin subfragment-1 crosslinked to cardiac or skeletal actin) (Gallus gallus, UniProt P10587).
T1 construct: chicken gizzard smooth muscle myosin subfragment-1; from tissue; host or cells: chicken gizzard
The experiment in a line: Lead optimization pyruvate kinase/horseradish peroxidase/pyruvate oxidase-coupled ATPase assay (compound dose response). The assay is classed as biochemical. As to conditions: read-out: IC50 Arithmetic Mean. An outline of the steps: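 The ATPase used chicken gizzard smooth muscle myosin S1 chemically crosslinked to cardiac or skeletal actin, titrated to a set hydrolysis rate. It was coupled via pyruvate kinase/pyruvate oxidase/HRP in 12 mM K-PIPES pH 7.00 (22 °C) with 0.15 mM ATP, 2 mM MgCl2, 100 mM KCl and 0.1 mM Amplex Red. Fluorescence was read at ex 480/em 615 nm, and IC50 came from a 4-parameter fit.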

On to `Cc1c(Cl)cccc1CNC(=O)C1(COC(=O)Nc2ccc(C(F)(F)F)cc2)CCN(C(=O)CN)CC1` [[(1-(2-aminoacetyl)-4-{N-[(3-chloro-2-methylphenyl)methyl]carbamoyl}(4-piperidyl))methoxy]-N-[4-(trifluoromethyl)phenyl]carboxamide], for which the IC50 was 179 nM.
To `CCc1ccc(NC(=O)OCC2(C(=O)NCc3cccc(Cl)c3)CCN(C(=O)CN)CC2)cc1` [[(1-(2-aminoacetyl)-4-{N-[(3-chlorophenyl)methyl]carbamoyl}(4-piperidyl))methoxy]-N-(4-ethylphenyl)carboxamide] belongs 729 nM.
To `CCc1ccc(NC(=O)OCC2(C(=O)NCc3cccc(F)c3C)CCN(C(=O)CN)CC2)cc1` [[(1-(2-aminoacetyl)-4-{N-[(3-fluoro-2-methylphenyl)methyl]carbamoyl}(4-piperidyl))methoxy]-N-(4-ethylphenyl)carboxamide] belongs 81 nM; to `Cc1c(F)cccc1CNC(=O)C1(COC(=O)Nc2ccc(C(F)(F)F)cc2)CCN(C(=O)CN)CC1` [[(1-(2-aminoacetyl)-4-{N-[(3-fluoro-2-methylphenyl)methyl]carbamoyl}(4-piperidyl))methoxy]-N-[4-(trifluoromethyl)phenyl]carboxamide], 412 nM.
The value for `CCc1ccc(NC(=O)OCC2(C(=O)NCc3cccc(F)c3)CCN(C(=O)CN)CC2)cc1` [[(1-(2-aminoacetyl)-4-{N-[(3-fluorophenyl)methyl]carbamoyl}(4-piperidyl))methoxy]-N-(4-ethylphenyl)carboxamide] was 1030 nM; that for `CCc1ccc(NC(=O)OCC2(C(=O)NCc3ncccc3C)CCN(C(=O)CN)CC2)cc1` [[(1-(2-aminoacetyl)-4-{N-[(3-methyl(2-pyridyl))methyl]carbamoyl}(4-piperidyl))methoxy]-N-(4-ethylphenyl)carboxamide] was 2980 nM; that for `CCc1ccc(NC(=O)OCC2(C(=O)NCc3ccc(Cl)cc3F)CCN(C(=O)CN)CC2)cc1` [[(1-(2-aminoacetyl)-4-{N-[(4-chloro-2-fluorophenyl)methyl]carbamoyl}(4-piperidyl))methoxy]-N-(4-ethylphenyl)carboxamide] was 262 nM.
As to `CCc1ccc(NC(=O)OCC2(C(=O)NCc3ccc(Cl)cc3C)CCN(C(=O)CN)CC2)cc1` [[(1-(2-aminoacetyl)-4-{N-[(4-chloro-2-methylphenyl)methyl]carbamoyl}(4-piperidyl))methoxy]-N-(4-ethylphenyl)carboxamide], the IC50 is 145 nM.
As to `CCc1ccc(NC(=O)OCC2(C(=O)NCc3ccc(Cl)cc3)CCN(C(=O)CN)CC2)cc1` [[(1-(2-aminoacetyl)-4-{N-[(4-chlorophenyl)methyl]carbamoyl}(4-piperidyl))methoxy]-N-(4-ethylphenyl)carboxamide], the IC50 was 1280 nM.
In the case of `CCc1ccc(NC(=O)OCC2(C(=O)NCc3ccc(F)cc3)CCN(C(=O)CN)CC2)cc1` [[(1-(2-aminoacetyl)-4-{N-[(4-fluorophenyl)methyl]carbamoyl}(4-piperidyl))methoxy]-N-(4-ethylphenyl)carboxamide], the IC50 was determined as 1100 nM.
With `CCc1ccc(NC(=O)OCC2(C(=O)NCc3ncc[nH]3)CCN(C(=O)CNC(=O)OC(C)(C)C)CC2)cc1` [[(1-{2-[(tert-butoxy)carbonylamino]acetyl}-4-[N-(imidazol-2-ylmethyl)carbamoyl](4-piperidyl))methoxy]-N-(4-ethylphenyl)carboxamide], the IC50 is 1770 nM.
The value for `CCc1ccc(NC(=O)OCC2(C(=O)NCc3ccc(F)cc3Cl)CCN(C(=O)CNC(=O)OC(C)(C)C)CC2)cc1` [[(1-{2-[(tert-butoxy)carbonylamino]acetyl}-4-{N-[(2-chloro-4-fluorophenyl)methyl]carbamoyl}(4-piperidyl))methoxy]-N-(4-ethylphenyl)carboxamide] was 1080 nM; that for `CC(C)(C)OC(=O)NCC(=O)N1CCC(COC(=O)Nc2ccc(C(F)(F)F)cc2)(C(=O)NCc2cccc(Cl)c2F)CC1` [[(1-{2-[(tert-butoxy)carbonylamino]acetyl}-4-{N-[(3-chloro-2-fluorophenyl)methyl]carbamoyl}(4-piperidyl))methoxy]-N-[4-(trifluoromethyl)phenyl]carboxamide] was 6560 nM.
Take `Cc1c(Cl)cccc1CNC(=O)C1(COC(=O)Nc2ccc(C(F)(F)F)cc2)CCN(C(=O)CNC(=O)OC(C)(C)C)CC1` [[(1-{2-[(tert-butoxy)carbonylamino]acetyl}-4-{N-[(3-chloro-2-methylphenyl)methyl]carbamoyl}(4-piperidyl))methoxy]-N-[4-(trifluoromethyl)phenyl]carboxamide]: the IC50 amounted to 5640 nM.
The value for `Cc1c(F)cccc1CNC(=O)C1(COC(=O)Nc2ccc(C(F)(F)F)cc2)CCN(C(=O)CNC(=O)OC(C)(C)C)CC1` [[(1-{2-[(tert-butoxy)carbonylamino]acetyl}-4-{N-[(3-fluoro-2-methylphenyl)methyl]carbamoyl}(4-piperidyl))methoxy]-N-[4-(trifluoromethyl)phenyl]carboxamide] was 3180 nM.
To `CCc1ccc(NC(=O)OCC2(C(=O)NCc3cccc(F)c3)CCN(C(=O)CNC(=O)OC(C)(C)C)CC2)cc1` [[(1-{2-[(tert-butoxy)carbonylamino]acetyl}-4-{N-[(3-fluorophenyl)methyl]carbamoyl}(4-piperidyl))methoxy]-N-(4-ethylphenyl)carboxamide] belongs 8240 nM; to `CCc1ccc(NC(=O)OCC2(C(=O)NCc3ccc(Cl)cc3)CCN(C(=O)CNC(=O)OC(C)(C)C)CC2)cc1` [[(1-{2-[(tert-butoxy)carbonylamino]acetyl}-4-{N-[(4-chlorophenyl)methyl]carbamoyl}(4-piperidyl))methoxy]-N-(4-ethylphenyl)carboxamide], 14500 nM; to `CCc1ccc(NC(=O)OCC2(C(=O)NCc3ccc(F)cc3)CCN(C(=O)CNC(=O)OC(C)(C)C)CC2)cc1` [[(1-{2-[(tert-butoxy)carbonylamino]acetyl}-4-{N-[(4-fluorophenyl)methyl]carbamoyl}(4-piperidyl))methoxy]-N-(4-ethylphenyl)carboxamide], 10100 nM.
To `CCc1ccc(NC(=O)OC[C@@H](C)N(C)C(=O)NCc2ccccc2Cl)cc1` [[(2R)-2-({[(2-chlorophenyl)methyl]amino}-N-methylcarbonylamino)propoxy]-N-(4-ethylphenyl)carboxamide] belongs 6810 nM.
As to `CCc1ccc(NC(=O)OCC2(C(=O)NCc3cccc(Cl)c3Cl)CCN(C(=O)CNC(=O)OC(C)(C)C)CC2)cc1` [[(4-{N-[(2,3-dichlorophenyl)methyl]carbamoyl}-1-{2-[(tert-butoxy)carbonylamino]acetyl}(4-piperidyl))methoxy]-N-(4-ethylphenyl)carboxamide], the half-maximal inhibitory concentration (IC50) was 313 nM.
For `CC(C)(C)OC(=O)NCC(=O)N1CCC(COC(=O)Nc2ccc(C(F)(F)F)cc2)(C(=O)NCc2cccc(Cl)c2Cl)CC1` [[(4-{N-[(2,3-dichlorophenyl)methyl]carbamoyl}-1-{2-[(tert-butoxy)carbonylamino]acetyl}(4-piperidyl))methoxy]-N-[4-(trifluoromethyl)phenyl]carboxamide], the IC50 was found to be 3720 nM.
To `CCc1ccc(NC(=O)OCC2(C(=O)NCc3cccc(F)c3F)CCN(C(=O)CNC(=O)OC(C)(C)C)CC2)cc1` [[(4-{N-[(2,3-difluorophenyl)methyl]carbamoyl}-1-{2-[(tert-butoxy)carbonylamino]acetyl}(4-piperidyl))methoxy]-N-(4-ethylphenyl)carboxamide] belongs 1590 nM.
The value for `CCc1ccc(NC(=O)OCC2(C(=O)NCc3ccccc3Br)CCN(C(=O)CNC)CC2)cc1` [[(4-{N-[(2-bromophenyl)methyl]carbamoyl}-1-[2-(methylamino)acetyl](4-piperidyl))methoxy]-N-(4-ethylphenyl)carboxamide] was 168 nM; that for `CCc1ccc(NC(=O)OCC2CN(C(=O)NCc3ccccc3Cl)CCO2)cc1` (stereo not drawn) [[(4-{N-[(2-chlorophenyl)methyl]carbamoyl}morpholin-2-yl)methoxy]-N-(4-ethylphenyl)carboxamide] was 11700 nM; that for `CCc1ccc(NC(=O)OCC2(C(=O)NCc3ccccc3Cl)CCC2)cc1` [[({N-[(2-chlorophenyl)methyl]carbamoyl}cyclobutyl)methoxy]-N-(4-ethylphenyl)carboxamide] was 1880 nM.
The value for `CCOC(=O)c1ccc(NC(=O)OCC2(C(=O)NCc3ccccc3Cl)CCOCC2)cc1` [ethyl 4-{[(4-{N-[(2-chlorophenyl)methyl]carbamoyl}-2H-3,4,5,6-tetrahydropyran-4-yl)methoxy]carbonylamino}benzoate] was 6390 nM; that for `CCc1ccc(NC(=O)OCC2(C(=O)OC)CCN(C(=O)CN)CC2)cc1` [methyl 1-(2-aminoacetyl)-4-{[N-(4-ethylphenyl)carbamoyloxy]methyl}piperidine-4-carboxylate] was 18000 nM.
`CCc1ccc(NC(=O)OCC2(C(=O)NCc3ccccc3Cl)CCN(CC(=O)OC)CC2)cc1` [methyl 2-(4-{N-[(2-chlorophenyl)methyl]carbamoyl}-4-{[N-(4-ethylphenyl)carbamoyloxy]methyl}piperidyl)acetate]: the concentration for half-maximal inhibition (IC50) amounted to 1520 nM.
To `COC(=O)c1ccccc1CNC(=O)C1(COC(=O)Nc2ccc(C(F)(F)F)cc2)CCN(C(=O)CN)CC1` [methyl 2-({[1-(2-aminoacetyl)-4-({N-[4-(trifluoromethyl)phenyl]carbamoyloxy}methyl)-4-piperidyl]carbonylamino}methyl)benzoate] belongs 2290 nM; to `CCc1ccc(NC(=O)NC2(C(=O)NCc3ccccc3Cl)CCN(C(=O)OC)C2)cc1` (stereo not drawn) [methyl 3-{N-[(2-chlorophenyl)methyl]carbamoyl}-3-{[(4-ethylphenyl)amino]carbonylamino}pyrrolidinecarboxylate], 18600 nM.

The values above are taken from patent US8071625B2, “Certain chemical entities, compositions, and methods” (Cytokinetics, Inc., priority 2006, dated 2011).
